This is an account of results in US6593326B1, “2,4-diamino pyrimidine compounds having anti-cell proliferative activity” (AstraZeneca AB, priority 1998, dated 2003).

One assay has as its target T1, CDK4/Cyclin D1 (Homo sapiens, UniProt P11802).
T1 construct: made in house; host or cells: Sf21 insect cells (baculovirus co-infection, pVL1393); the substrate was made in E. coli BL21 (DE3) pLysS
In words: CDK4 Inhibition Assay (Scintillation Proximity Assay, GST-Retinoblastoma substrate). In kind it is biochemical. As to conditions: in vitro kinase assay; read-out: CDK4 inhibitory activity IC50. As to the method:
The compounds were tested in an in vitro kinase assay in 96 well format using Scintillation Proximity Assay (SPA-obtained from Amersham) for measuring incorporation of [γ-33-P]-Adenosine Triphosphate into a test substrate (GST-Retinoblastoma). In each well was placed the compound to be tested (diluted in DMSO and water to correct concentrations) and in control wells either p16 as an inhibitor control or DMSO as a positive control.
Approximately 0.5 μl of CDK4/Cyclin D1 partially-purified enzyme (amount dependent on enzyme activity) diluted in 25 μl incubation buffer was added to each well then 20 μl of GST-Rb/ATP/ATP33 mixture (containing 0.5 μg GST-Rb and 0.2 μM ATP and 0.14 μCi [γ-33-P]-Adenosine Triphosphate), and the resulting mixture shaken gently, then incubated at room temperature for 60 minutes. […]
The plates were sealed with Topseal-S plate sealers, left for two hours then spun at 2500 rpm, 1124×g., for 5 minutes. The plates were read on a Topcount for 30 seconds per well. […]
E.coli paste was resuspended in 10 ml/g of NETN buffer (50 mM Tris pH 7.5, 120 mM NaCl, 1 mM EDTA, 0.5% v/v NP-40, 1 mM PMSF, 1 ug/ml leupeptin, 1 ug/ml aprotinin and 1 ug/ml pepstatin) and sonicated for 2×45 seconds per 100 ml homogenate. […] The final product was analysed by Sodium Dodeca Sulfate (SDS) PAGE (Polyacrylamide gel) using 8-16% Tris-Glycine gels (Novex, San Diego, USA). […]

Assay [1] addresses T2, human Focal Adhesion Kinase (FAK) (Homo sapiens, UniProt Q05397).
T2 construct: FAK (full length human cDNA described by Andre et al); made in house; host or cells: Sf21 insect cells (baculovirus, pFastbac 1)
In words: FAK3 Kinase Inhibition Assay. In kind it is biochemical. As to conditions: in vitro enzyme assay; read-out: FAK inhibitory activity IC50. From the text: FAK3 Kinase Inhibition Assay
This assay determines the ability of a test compound to inhibit tyrosine kinase activity of human Focal Adhesion Kinase (FAK).
DNA encoding FAK is obtained by total gene synthesis (Edwards M, International Biotechnology Lab 5(3), 19-25, 1987) or by cloning. These are then expressed in a suitable expression system to obtain polypeptide with tyrosine kinase activity.
Active FAK protein has been previously expressed in a baculovirus system using a similar N-terminal 6-histidine tag (Protein Expression And Purification, 1996, 7: 12-18). The human FAK cDNA was cloned into the baculovirus transplacement vector, pFastbac 1 (Life Technologies), and the recombinant construct was co-transfected into insect cells (for example Spodoptera frugiperda 21(Sf21)) with viral DNA to prepare recombinant baculovirus (details of the methods for the assembly of recombinant DNA molecules and the preparation and use of recombinant baculovirus can be found in standard texts for example Sambrook et al, 1989, Molecular cloning—A Laboratory Manual, 2nd edition, Cold Spring Harbour Laboratory Press and O'Reilly et al, 1992, Baculovirus Expression Vectors—A Laboratory Manual, W. H. Freeman and Co, New York. Details specific to the use of the pFastbac (‘Bac to Bac’) system are provided in Anderson et al., 1995, FOCUS (Life Technologies Bulletin Magazine), 17, p53.) […]

T1 sequence (P11802 whole entry): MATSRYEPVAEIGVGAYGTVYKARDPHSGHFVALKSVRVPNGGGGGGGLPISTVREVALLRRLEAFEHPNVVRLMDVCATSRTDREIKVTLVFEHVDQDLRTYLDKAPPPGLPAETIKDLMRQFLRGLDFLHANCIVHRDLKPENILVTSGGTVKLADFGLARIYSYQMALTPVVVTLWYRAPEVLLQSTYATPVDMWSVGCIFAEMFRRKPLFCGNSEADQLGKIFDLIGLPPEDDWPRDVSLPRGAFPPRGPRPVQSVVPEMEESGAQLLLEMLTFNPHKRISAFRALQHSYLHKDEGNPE
T1 sequence (P24385 whole entry partner): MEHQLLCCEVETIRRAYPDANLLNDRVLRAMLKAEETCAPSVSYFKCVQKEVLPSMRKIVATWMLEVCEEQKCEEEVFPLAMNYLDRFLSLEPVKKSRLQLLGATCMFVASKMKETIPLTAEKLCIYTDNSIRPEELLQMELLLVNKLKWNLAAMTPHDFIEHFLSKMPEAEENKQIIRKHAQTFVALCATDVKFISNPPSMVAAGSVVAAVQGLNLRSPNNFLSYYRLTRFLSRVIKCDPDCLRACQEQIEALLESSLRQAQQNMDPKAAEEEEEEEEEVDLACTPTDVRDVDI
T2 sequence (Q05397 whole entry): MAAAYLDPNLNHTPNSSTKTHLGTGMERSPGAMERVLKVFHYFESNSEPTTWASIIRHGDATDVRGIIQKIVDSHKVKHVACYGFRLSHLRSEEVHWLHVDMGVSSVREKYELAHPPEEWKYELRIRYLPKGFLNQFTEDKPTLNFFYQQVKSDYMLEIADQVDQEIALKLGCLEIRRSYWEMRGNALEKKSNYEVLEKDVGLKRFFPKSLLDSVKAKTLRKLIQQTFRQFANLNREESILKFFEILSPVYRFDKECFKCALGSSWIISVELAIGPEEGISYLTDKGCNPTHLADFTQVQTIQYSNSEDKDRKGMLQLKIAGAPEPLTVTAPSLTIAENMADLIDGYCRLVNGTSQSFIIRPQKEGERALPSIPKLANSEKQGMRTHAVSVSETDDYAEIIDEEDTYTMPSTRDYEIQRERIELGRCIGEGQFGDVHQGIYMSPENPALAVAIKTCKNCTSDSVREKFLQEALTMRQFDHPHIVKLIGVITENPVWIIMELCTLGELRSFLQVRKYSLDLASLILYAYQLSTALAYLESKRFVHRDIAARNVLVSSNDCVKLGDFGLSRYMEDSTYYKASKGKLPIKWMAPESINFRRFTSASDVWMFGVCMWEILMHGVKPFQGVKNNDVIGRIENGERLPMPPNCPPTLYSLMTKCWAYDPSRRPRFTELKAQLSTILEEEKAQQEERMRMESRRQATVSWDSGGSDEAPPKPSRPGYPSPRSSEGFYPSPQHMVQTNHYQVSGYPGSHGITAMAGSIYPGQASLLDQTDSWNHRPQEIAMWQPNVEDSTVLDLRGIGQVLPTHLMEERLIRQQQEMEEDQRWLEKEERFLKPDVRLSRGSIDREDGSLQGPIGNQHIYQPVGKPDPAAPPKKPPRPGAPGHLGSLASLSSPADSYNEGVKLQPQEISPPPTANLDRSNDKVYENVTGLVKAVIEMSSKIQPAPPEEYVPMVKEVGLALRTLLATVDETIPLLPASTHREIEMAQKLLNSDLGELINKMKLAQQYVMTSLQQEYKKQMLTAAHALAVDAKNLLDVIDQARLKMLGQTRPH

As to `CN(C)CC(O)COc1ccc(Nc2ncc(Br)c(Nc3ccccc3)n2)cc1` (racemic) [Example 3, 4-anilino-5-bromo-2-{4-[3-(N,N-dimethyl)amino-2-hydroxypropoxy]anilino}pyrimidine], the IC50 on CDK4/Cyclin D1 came out at 70 nM.
On the same count and under the same terms, then `Cc1ccc(F)c(Nc2nc(Nc3ccc(OCC(O)CN(C)C)cc3)ncc2Br)c1` (stereo not shown) [Example 5, 2-{4-[3-(N,N-Dimethyl)amino-2-hydroxy-propoxy]anilino}-4-(2-fluoro-5-methylanilino)-5-bromo-pyrimidine], with 20 nM.
Take `CN(C)CC(O)COc1ccc(Nc2ncc([N+](=O)[O-])c(Nc3ccccc3F)n2)cc1` (stereo not shown) [Example 6]: the IC50 in assay [1] worked out at 32 nM.
On the same count and under the same terms, to `CC(C)NCCCNc1ccc(Nc2ncc(Br)c(Nc3ccccn3)n2)cc1` [Example 220] belongs 70 nM.

The IC50 is the midpoint of a concentration-inhibition curve.
